Measurements reported in patent US12146155B2, “Method for constructing human pluripotent stem cell-derived liver organoid having enhanced drug metabolic potential and liver organoid constructed by same method” (KOREA RESEARCH INSTITUTE OF CHEMICAL TECHNOLOGY, priority 2021, dated 2024).
Each block holds one molecule with its values, some of them ahead of it.

Experiments:
HepG2 and 2D HLC = assay: Acetaminophen metabolite formation (LC-MS/MS); type: in vitro ADME, human; conditions: 10 mM APAP
Protocol: Specifically, to measure the metabolites of APAP, reactions were performed in PHH, D-HO, S-HO, HepG2, and 2D HLC treated with 10 mM APAP for 24 hours at 37° C. in 5% CO2. APAP was treated to a final volume of 0.7 m ? per well in each 24-well culture plate. 70 μ ? of medium was collected at 3, 6, 12 and 24 hours, respectively, and the reaction was quenched by adding 70 μ ? of ice-cold ACN containing 100 nM BR-A-563 as an internal standard. The samples were centrifuged at 16,000 g for 10 minutes at 4° C. and the supernatant was applied to liquid chromatography-tandem mass spectrometry (LC-MS/MS). Data were normalized to protein concentration.

[1] = test system: hiPSC-derived cardiomyocytes (hiPSC-CMs) co-cultured with FC-treated S(−)-HO
Protocol: (§1) Specifically, the electrical activity of Cardiosight®-S (NEXEL Co., South Korea), the hiPSC-CM, was measured using an MEA system (Axion BioSystems, Maestro, US) at 37° C. and perfused with 5% CO2, 20% O2, and 75% N2. The hiPSC-CMs were first seeded in a 12-well MEA plate at the density of 4×10^4 cells per well and maintained for 7 days in a cardiomyocyte culture medium provided by NEXEL Co. to stabilize with half-mid changes performed every 2 days. One week later, the culture medium was replaced with a liver organoid differentiation medium (DM). Transwell inserts (Corning) were then placed in each well, and FC-treated S(−)-HO was seeded in the inserts, followed by culture for 3 days. On the day of compound application, the culture medium was completely removed from the wells and inserts and fresh medium was added to ensure the correct volume per well (2 m ? /well total). Cells were allowed to equilibrate for 4 hours, and online parameters were monitored to ensure a stable baseline for at least 40 minutes. The cells were exposed to cyclophosphamide at a single dose per well. After application of the drug or control (0.1% DMSO), field potentials were measured every 5 minutes for 30 seconds for 72 hours. The field potential signals were recorded and analyzed using Axion BioSystems' integrated studio (AxIS) software to measure the beating frequency and field potential duration. […]

HepG2 = assay: Fimasartan metabolite formation (LC-MS/MS); type: in vitro ADME, human; conditions: 50 μM FMS for 24 hours
Protocol: 70 μ ? of medium was collected at 3, 6, 12 and 24 hours, respectively, and the reaction was quenched by adding 70 μ ? of ice-cold ACN containing 100 nM BR-A-563 as an internal standard. The samples were centrifuged at 16,000 g for 10 minutes at 4° C. and the supernatant was applied to liquid chromatography-tandem mass spectrometry (LC-MS/MS). Data were normalized to protein concentration.

MRP2 = target: T1, MRP2 (Homo sapiens, UniProt Q92887); assay: CDFDA staining of liver organoids with or without transporter inhibitor; type: cell-based; conditions: 2 mM probenecid for 3 hours; D(−)-HO and S(−)-HO
T1 construct: endogenous in cells; host or cells: human iPSC-derived liver organoids (D(−)-HO, S(−)-HO)
T1 sequence (Q92887 whole entry): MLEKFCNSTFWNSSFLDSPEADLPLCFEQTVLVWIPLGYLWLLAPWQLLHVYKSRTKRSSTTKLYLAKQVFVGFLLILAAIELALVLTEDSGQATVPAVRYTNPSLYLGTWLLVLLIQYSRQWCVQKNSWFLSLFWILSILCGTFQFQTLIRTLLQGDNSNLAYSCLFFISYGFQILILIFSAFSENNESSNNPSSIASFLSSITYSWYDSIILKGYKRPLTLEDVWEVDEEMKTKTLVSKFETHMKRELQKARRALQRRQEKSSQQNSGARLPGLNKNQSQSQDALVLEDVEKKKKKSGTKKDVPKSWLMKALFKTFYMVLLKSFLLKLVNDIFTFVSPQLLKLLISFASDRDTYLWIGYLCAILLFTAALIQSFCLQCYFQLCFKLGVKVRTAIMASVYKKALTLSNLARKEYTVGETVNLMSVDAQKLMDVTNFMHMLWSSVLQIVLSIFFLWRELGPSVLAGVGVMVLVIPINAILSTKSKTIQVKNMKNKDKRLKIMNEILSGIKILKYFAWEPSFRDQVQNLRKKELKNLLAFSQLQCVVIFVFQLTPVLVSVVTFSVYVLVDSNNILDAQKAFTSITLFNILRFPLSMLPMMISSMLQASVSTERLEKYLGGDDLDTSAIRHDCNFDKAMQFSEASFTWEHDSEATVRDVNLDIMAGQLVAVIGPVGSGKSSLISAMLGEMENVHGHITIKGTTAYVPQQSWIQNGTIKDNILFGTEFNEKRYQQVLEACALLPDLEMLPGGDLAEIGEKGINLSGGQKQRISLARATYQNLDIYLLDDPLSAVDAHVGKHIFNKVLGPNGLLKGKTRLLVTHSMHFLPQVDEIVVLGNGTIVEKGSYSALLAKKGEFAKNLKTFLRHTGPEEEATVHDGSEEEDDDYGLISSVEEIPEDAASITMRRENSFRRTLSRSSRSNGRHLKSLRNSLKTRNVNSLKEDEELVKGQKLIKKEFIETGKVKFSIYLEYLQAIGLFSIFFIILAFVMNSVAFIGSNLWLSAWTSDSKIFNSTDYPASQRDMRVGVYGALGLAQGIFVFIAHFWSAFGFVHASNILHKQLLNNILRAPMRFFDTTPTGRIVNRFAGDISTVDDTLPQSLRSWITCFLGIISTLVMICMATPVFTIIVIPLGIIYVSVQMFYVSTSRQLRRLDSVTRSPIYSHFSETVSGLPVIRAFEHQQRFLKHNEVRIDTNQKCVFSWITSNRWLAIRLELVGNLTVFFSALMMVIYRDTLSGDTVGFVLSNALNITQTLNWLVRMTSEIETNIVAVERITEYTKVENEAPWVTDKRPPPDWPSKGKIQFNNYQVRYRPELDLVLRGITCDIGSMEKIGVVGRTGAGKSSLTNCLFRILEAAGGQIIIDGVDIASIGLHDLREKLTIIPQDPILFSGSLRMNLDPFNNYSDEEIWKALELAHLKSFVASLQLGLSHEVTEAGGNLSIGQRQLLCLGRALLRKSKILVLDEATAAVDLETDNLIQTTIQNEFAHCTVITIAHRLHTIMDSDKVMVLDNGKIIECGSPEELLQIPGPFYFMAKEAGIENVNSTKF
Protocol: Specifically, the liver organoids were recovered on Matrigel and washed three times with DPBS. For CDFDA (5(6)-carboxy-2′,7′-dichlorofluorescein diacetate) staining, the liver organoids treated with or without 2 mM probenecid for 3 hours were stained with 10 μM CDFDA (Sigma-Aldrich) for 15 minutes at 37° C., 5% CO2. […] All samples were washed three times with DPBS, stained with Hoechst 33342, and observed under an Olympus FV3000 confocal microscope.

[2] = test system: hiPSC-CM not cultured with liver organoids; assay: MEA electrophysiology of hiPSC-CMs without liver organoids; type: cell-based, human
Protocol: as §1

SMILES: O=P1(N(CCCl)CCCl)NCCCO1 (stereo not drawn) [CP, Cyclophosphamide]
field potential duration corrected by beating frequency (FPDcF) ([1]; 250 μM, after 24 and 72 hours): increased
beating rate ([1]; 250 and 500 μM for 24 and 72 hours, compared to hiPSC-CM alone): significantly reduced

SMILES: CCCN(CCC)S(=O)(=O)c1ccc(C(=O)O)cc1 [probenecid]
MRP2-specific fluorescence (CDFDA) when transporter blocked (MRP2): accumulated in the lumen of the liver organoids

Continued, values first:

APAP-GSH amount of metabolites (HepG2 and 2D HLC): no metabolites were detected
SMILES: CC(=O)Nc1ccc(O)cc1 [acetaminophen, Acetaminophen]

production of BR-A-535, a 3-step metabolite of FMS by CYP3A4 (HepG2): not observed
SMILES: CCCCc1nc(C)c(CC(=S)N(C)C)c(=O)n1Cc1ccc(-c2ccccc2-c2nnn[nH]2)cc1 [FMS, Fimasartan]

time to spontaneous beating cessation after addition [2]: ≤ 30 min
SMILES: CC(C)(C)c1ccc(C(O)CCCN2CCC(C(O)(c3ccccc3)c3ccccc3)CC2)cc1 (stereo not drawn) [terfenadine, Terfenadine]
